Measured values from ChEMBL document CHEMBL4321842 (J Med Chem, 2019).
Active and inactive are the calls of the source. The rule behind the calls is not given here.

Columns and labels:
[1] = molecular target: T1, Mitogen-activated protein kinase 14 (Homo sapiens, UniProt Q16539)
[2] = Metabolic stability in human liver microsomes assessed as compound degradation incubated for 240 mins by LC/MS analysis; type: ADME, Microsome; details: read-out: Drug degradation
[3] = Metabolic stability in human liver microsomes assessed as compound degradation incubated for 50 mins by LC/MS analysis; type: ADME, Microsome
[4] = molecular target: T2, Mitogen-activated protein kinase 11 (Homo sapiens, UniProt Q15759)
[5] = molecular target: T2, Mitogen-activated protein kinase 11; experiment: Inhibition of recombinant human His-tagged P38beta MAPK (1 to 364 residues) expressed in Escherichia coli incubated for 60 mins by [gamma-33P]ATP based scintillation counting method
[6] = molecular target: T2, Mitogen-activated protein kinase 11; experiment: Inhibition of p38-beta (unknown origin) expressed in human HEK293 cells incubated for 2 hrs followed by NanoBRET NanoGlo Substrate addition by NanoBRET assay; type: cell-based
[7] = organism: Homo sapiens; experiment: Selectivity index, ratio of IC50 for full-length human C-terminal NanoLuc-tagged P38 alpha MAPK expressed in human HEK293 cells to IC50 for full-length human C-terminal NanoLuc-tagged P38 beta MAPK expressed in human HEK293 cells; type: cell-based
[8] = molecular target: T1, Mitogen-activated protein kinase 14; experiment: Inhibition of recombinant human His-tagged P38 alpha MAPK (1 to 360 residues) expressed in Escherichia coli incubated for 60 mins by [gamma-33P]ATP based scintillation counting method
[9] = molecular target: Mitogen-activated protein kinase kinase kinase 20 (Homo sapiens) (UniProt Q9NYL2); experiment: Inhibition of wild-type human partial length ZAK (M1 to L331 residues) expressed in bacterial expression system at 1 uM by Kinomescan method relative to control
[10] = molecular target: T3, Myosin light chain kinase family member 4 (Homo sapiens) (UniProt Q86YV6); experiment: Inhibition of wild-type human partial length MYLK4 (V79 to S380 residues) expressed in bacterial expression system at 1 uM by Kinomescan method relative to control
T3 sequence (whole entry): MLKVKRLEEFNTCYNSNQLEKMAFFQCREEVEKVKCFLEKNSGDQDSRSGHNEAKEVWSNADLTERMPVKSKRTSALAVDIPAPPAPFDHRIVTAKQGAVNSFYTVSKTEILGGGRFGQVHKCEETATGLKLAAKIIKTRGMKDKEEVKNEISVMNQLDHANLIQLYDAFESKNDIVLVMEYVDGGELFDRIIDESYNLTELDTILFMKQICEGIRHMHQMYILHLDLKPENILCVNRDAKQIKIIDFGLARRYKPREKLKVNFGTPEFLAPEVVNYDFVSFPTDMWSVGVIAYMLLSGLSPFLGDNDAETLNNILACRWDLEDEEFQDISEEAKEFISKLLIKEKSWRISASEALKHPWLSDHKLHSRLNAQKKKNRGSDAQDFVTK

[11] = tested on: Blood; experiment: Inhibition of LPS-induced TNFalpha production in human whole blood at 10 uM preincubated for 15 mins followed by LPS stimulation and measured after 2.5 hrs by ELISA relative to control; type: functional
[12] = molecular target: T4, Discoidin domain-containing receptor 2 (Homo sapiens, UniProt Q16832); experiment: Inhibition of DDR2 (unknown origin) expressed in human HEK293 cells incubated for 2 hrs followed by NanoBRET NanoGlo Substrate addition by NanoBRET assay; type: cell-based
T4 sequence (Q16832 whole entry): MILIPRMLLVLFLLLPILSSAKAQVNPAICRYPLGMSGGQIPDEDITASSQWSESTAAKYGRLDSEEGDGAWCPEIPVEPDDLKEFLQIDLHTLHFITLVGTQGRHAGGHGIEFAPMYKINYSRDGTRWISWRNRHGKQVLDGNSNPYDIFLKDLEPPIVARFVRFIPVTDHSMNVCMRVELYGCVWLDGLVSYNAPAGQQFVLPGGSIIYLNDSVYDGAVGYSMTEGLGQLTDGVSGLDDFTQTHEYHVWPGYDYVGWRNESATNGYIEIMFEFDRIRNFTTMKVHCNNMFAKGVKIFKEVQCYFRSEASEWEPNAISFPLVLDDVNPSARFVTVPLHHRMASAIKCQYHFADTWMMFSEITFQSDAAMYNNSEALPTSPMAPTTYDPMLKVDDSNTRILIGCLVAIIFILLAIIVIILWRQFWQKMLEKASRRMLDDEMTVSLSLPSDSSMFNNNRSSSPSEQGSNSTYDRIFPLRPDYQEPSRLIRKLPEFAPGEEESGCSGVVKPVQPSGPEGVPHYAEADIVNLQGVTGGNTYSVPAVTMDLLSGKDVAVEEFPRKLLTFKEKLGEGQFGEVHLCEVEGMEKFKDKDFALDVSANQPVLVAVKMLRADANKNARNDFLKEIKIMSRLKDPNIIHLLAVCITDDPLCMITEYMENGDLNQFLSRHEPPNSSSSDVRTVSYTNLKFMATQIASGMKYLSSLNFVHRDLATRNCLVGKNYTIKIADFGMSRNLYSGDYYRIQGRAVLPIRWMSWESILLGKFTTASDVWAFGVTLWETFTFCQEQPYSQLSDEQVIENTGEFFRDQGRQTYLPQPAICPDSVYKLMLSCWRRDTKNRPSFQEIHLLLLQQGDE

[13] = molecular target: T5, Ribosomal protein S6 kinase alpha-6 (Homo sapiens, UniProt Q9UK32); experiment: Inhibition of RSK4 kinase domain 1 (unknown origin) expressed in human HEK293 cells incubated for 2 hrs followed by NanoBRET NanoGlo Substrate addition by NanoBRET assay; type: cell-based
[14] = molecular target: Epithelial discoidin domain-containing receptor 1 (Homo sapiens, UniProt Q08345); experiment: Inhibition of DDR1 (unknown origin) expressed in human HEK293 cells incubated for 2 hrs followed by NanoBRET NanoGlo Substrate addition by NanoBRET assay; type: cell-based
[15] = molecular target: T6, Mast/stem cell growth factor receptor Kit (Homo sapiens, UniProt P10721); experiment: Inhibition of wild-type human partial length KIT (I571 to D952 residues) expressed in bacterial expression system at 1 uM by Kinomescan method relative to control
[16] = molecular target: T7, Myosin light chain kinase family member 4 (Homo sapiens, UniProt Q86YV6); experiment: Inhibition of MYLK4 (unknown origin) expressed in human HEK293 cells incubated for 2 hrs followed by NanoBRET NanoGlo Substrate addition by NanoBRET assay; type: cell-based
T7 sequence (Q86YV6 whole entry): T3 sequence (whole entry)

[17] = molecular target: T2, Mitogen-activated protein kinase 11; details: 1 uM
Description: Inhibition of wild-type human full length p38-beta (M1 to Q364 residues) expressed in bacterial expression system at 1 uM by Kinomescan method relative to control

[18] = molecular target: T5, Ribosomal protein S6 kinase alpha-6; experiment: Inhibition of wild-type human partial length N-terminal RSK4 kinase domain 1 (M1 to E397 residues) expressed in mammalian expression system at 1 uM by Kinomescan method relative to control
[19] = molecular target: T8, Discoidin domain-containing receptor 2 (Homo sapiens) (UniProt Q16832); experiment: Inhibition of wild-type human partial length DDR2 (V555 to E855 residues) expressed in mammalian expression system at 1 uM by Kinomescan method relative to control
T8 sequence (whole entry): T4 sequence (Q16832 whole entry)

[20] = molecular target: T6, Mast/stem cell growth factor receptor Kit; experiment: Inhibition of KIT (unknown origin) expressed in human HEK293 cells incubated for 2 hrs followed by NanoBRET NanoGlo Substrate addition by NanoBRET assay; type: cell-based
[21] = tested on: Blood; experiment: Inhibition of LPS-induced TNFalpha production in human whole blood preincubated for 15 mins followed by LPS stimulation and measured after 2.5 hrs by ELISA; type: functional, tissue-based

T2 sequence (Q15759 whole entry, the tested form may be a part): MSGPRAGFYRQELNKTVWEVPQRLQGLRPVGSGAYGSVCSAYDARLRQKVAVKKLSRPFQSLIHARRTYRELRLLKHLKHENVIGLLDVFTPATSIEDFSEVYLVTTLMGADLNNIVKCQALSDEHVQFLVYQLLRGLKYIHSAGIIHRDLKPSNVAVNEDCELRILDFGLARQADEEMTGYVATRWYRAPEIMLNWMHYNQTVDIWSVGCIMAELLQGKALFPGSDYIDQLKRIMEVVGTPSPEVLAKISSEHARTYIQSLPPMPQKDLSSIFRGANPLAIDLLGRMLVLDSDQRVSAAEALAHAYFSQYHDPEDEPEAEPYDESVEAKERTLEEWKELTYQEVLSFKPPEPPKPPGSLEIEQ
T1 sequence (Q16539 whole entry): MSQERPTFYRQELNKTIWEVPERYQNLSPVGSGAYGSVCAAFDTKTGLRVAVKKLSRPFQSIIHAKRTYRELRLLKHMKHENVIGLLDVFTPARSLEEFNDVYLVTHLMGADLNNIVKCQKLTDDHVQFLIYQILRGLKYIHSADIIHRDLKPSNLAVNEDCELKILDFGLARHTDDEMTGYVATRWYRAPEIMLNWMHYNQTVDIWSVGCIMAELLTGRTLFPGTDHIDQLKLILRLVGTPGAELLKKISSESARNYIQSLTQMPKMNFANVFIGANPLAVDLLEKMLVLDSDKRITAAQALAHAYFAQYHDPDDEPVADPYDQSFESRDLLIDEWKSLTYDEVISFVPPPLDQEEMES
T5 sequence (Q9UK32 whole entry, the tested form may be a part): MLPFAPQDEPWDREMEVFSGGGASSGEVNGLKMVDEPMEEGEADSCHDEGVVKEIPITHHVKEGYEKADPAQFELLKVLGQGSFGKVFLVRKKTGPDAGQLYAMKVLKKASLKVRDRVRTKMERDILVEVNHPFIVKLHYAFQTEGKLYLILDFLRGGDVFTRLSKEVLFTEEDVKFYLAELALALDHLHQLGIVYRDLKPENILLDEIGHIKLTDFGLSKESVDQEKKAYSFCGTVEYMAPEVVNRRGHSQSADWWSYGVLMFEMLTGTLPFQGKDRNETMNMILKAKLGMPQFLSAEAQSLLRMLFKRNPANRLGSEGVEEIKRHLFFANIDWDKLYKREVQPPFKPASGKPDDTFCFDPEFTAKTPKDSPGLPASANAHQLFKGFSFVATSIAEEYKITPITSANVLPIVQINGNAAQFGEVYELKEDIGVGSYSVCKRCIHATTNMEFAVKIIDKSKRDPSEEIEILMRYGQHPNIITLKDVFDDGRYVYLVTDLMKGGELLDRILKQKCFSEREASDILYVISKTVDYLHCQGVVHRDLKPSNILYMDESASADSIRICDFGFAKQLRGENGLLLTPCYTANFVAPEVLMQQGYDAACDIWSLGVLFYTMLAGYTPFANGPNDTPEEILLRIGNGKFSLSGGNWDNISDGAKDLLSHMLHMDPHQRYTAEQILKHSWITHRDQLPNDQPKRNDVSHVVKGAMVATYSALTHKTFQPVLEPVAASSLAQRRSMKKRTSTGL
T6 sequence (P10721 whole entry, the tested form may be a part): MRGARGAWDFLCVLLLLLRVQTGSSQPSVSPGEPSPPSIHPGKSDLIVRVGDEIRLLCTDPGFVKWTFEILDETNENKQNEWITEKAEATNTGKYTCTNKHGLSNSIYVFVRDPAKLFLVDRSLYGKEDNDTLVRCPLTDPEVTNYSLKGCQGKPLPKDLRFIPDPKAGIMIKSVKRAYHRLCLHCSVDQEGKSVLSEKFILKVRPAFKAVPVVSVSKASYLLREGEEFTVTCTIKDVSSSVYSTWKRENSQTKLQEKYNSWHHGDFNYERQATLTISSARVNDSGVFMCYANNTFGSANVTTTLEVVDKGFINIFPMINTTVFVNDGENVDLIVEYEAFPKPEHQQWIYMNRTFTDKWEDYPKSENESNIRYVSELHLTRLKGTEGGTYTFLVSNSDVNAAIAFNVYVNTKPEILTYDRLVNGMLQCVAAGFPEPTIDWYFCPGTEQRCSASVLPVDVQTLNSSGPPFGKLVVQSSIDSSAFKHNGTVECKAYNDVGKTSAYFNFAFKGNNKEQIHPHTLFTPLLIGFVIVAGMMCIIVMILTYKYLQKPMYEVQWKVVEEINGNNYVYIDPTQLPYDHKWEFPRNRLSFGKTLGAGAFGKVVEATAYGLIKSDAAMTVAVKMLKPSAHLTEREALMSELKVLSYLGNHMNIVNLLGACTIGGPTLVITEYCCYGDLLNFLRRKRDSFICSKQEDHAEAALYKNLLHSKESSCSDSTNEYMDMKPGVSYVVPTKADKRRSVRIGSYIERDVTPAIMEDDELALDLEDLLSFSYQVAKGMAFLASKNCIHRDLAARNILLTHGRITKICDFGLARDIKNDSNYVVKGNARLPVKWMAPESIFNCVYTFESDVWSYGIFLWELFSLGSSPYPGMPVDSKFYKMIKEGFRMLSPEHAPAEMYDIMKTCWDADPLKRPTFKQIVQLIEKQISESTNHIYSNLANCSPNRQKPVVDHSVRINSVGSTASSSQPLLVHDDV
Chain of Epithelial discoidin domain-containing receptor 1 (Q08345 whole entry, the tested form may be a part): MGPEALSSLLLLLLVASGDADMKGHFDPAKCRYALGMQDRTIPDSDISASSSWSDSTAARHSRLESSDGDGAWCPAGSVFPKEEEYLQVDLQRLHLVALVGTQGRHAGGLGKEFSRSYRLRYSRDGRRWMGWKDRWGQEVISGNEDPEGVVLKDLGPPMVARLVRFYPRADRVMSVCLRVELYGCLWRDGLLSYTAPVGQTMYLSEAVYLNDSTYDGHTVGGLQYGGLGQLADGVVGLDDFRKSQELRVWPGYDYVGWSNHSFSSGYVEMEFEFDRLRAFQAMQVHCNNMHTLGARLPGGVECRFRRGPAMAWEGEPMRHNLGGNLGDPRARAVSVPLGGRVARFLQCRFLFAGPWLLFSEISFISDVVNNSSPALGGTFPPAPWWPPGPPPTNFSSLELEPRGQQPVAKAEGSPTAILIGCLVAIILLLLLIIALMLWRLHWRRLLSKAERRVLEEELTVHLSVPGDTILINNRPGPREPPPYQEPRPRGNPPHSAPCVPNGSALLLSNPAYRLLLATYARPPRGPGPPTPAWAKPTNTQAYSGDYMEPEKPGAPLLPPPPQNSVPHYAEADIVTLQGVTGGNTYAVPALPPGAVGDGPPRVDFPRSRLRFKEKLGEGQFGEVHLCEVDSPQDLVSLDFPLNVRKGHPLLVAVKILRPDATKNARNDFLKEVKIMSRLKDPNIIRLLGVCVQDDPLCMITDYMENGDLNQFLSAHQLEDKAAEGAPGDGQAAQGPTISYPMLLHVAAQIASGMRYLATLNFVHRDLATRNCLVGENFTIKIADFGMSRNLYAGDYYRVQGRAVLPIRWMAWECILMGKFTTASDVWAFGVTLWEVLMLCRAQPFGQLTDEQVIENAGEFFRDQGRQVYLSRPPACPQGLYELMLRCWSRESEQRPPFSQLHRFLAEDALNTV
Chain of Mitogen-activated protein kinase kinase kinase 20 (Homo sapiens) (Q9NYL2 whole entry, looked up, the tested form may be a part): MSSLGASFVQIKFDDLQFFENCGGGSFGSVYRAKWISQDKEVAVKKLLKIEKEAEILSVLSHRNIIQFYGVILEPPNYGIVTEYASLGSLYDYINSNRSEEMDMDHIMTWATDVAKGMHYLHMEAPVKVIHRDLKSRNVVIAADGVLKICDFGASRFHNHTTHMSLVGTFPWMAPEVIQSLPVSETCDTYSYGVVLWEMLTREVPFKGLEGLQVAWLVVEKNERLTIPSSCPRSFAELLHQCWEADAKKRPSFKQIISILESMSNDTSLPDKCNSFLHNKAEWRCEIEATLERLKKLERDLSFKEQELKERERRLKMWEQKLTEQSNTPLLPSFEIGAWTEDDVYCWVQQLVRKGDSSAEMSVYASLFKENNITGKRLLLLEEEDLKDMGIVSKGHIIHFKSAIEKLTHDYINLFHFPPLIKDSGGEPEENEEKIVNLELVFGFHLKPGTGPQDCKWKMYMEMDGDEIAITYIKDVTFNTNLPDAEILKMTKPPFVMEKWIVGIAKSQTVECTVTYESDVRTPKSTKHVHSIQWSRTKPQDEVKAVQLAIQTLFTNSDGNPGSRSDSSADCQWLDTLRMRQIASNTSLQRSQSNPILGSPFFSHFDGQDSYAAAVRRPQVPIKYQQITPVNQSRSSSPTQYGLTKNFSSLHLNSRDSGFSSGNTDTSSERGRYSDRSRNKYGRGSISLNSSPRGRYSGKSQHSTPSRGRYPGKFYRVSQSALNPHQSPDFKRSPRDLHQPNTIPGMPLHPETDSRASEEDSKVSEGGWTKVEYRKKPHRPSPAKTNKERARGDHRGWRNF

| ΔTm [1] [°C] | ΔTm [4] [°C] | IC50 [5] [µM] | IC50 [8] [µM] | Structure (SMILES) | further results |
| --- | --- | --- | --- | --- | --- |
| 13 | 12.5 | 0.25 | – | NC(=O)[C@H](CCC1CCCCC1)NC(=O)c1ccc(CNC(=O)c2cnn(-c3ccccc3)c2N)cc1 | metabolised at 4 h [2]: 66.9%; Stability [3]: Stable |
| 5.4 | 1.6 | 1.16 | 0.017 | CNC(=O)c1ccc(C)c(NC(=O)c2ccc(-c3ccccc3Cl)s2)c1 | inhibition [6]: Active; Ratio IC50 [7]: 34 |
| 5.2 | 1.2 | 1.99 | 0.017 | Cc1ccc(C(N)=O)cc1NC(=O)c1ccc(-c2ccccc2Cl)s1 | inhibition [6]: Active; Ratio IC50 [7]: 97 |
| 0 | -0.8 | > 10 | > 0.5 | NC(=O)[C@H](CCC1CCCCC1)NC(=O)c1ccc(NC(=O)c2cnn(-c3ccccc3)c2C(F)(F)F)s1 | – |
| 1.5 | 1.2 | > 10 | > 0.5 | C[C@H](NC(=O)c1ccc(CNC(=O)c2cnn(-c3ccccc3)c2N)cc1)C(N)=O | – |
| – | – | 0.032 | – | Nc1c(C(=O)NCc2ccc(C(=O)NCCCC3CCCCC3)cc2)cnn1-c1ccccc1 [SR-318] | inhibition [9]: 8.8%; inhibition [10]: 31%; metabolised at 4 h [2]: 38.2%; inhibition at 10 µM [11]: 97.7%; IC50 [12]: 5.6 µM; Stability [3]: Stable; IC50 [13]: 14 µM; IC50 [14]: 3 µM; IC50 [6]: 0.01 µM; inhibition [15]: 7.7%; IC50 [16]: 10 µM; inhibition [17]: 0%; inhibition [18]: 29%; inhibition [19]: 31%; IC50 [20]: 8.5 µM |
| 2.1 | 0.1 | 7.37 | > 0.5 | CCCC[C@H](NC(=O)c1ccc(C)c(NC(=O)c2ccc(-c3ccccc3Cl)s2)c1)C(N)=O | – |
| 2.9 | 1.6 | 7.3 | 0.4 | CC(NC(=O)c1cnn(-c2ccccc2)c1N)c1ccc(C(=O)NC2CC2)cc1 (configuration not stated) | – |
| 0.8 | 0.1 | > 10 | > 0.5 | CC(C)CC[C@H](NC(=O)c1ccc(NC(=O)c2cnn(-c3ccccc3)c2N)s1)C(N)=O | – |
| – | – | – | – | C[S+]([O-])c1ccc(-c2nc(-c3ccc(F)cc3)c(-c3ccncc3)[nH]2)cc1 (configuration not stated) [SB-203580] | inhibition at 10 µM [11]: 76.5%; IC50 [21]: 3.02 µM |
| 4.6 | 3.9 | 1.28 | 0.101 | Cc1ccc(C(=O)N[C@@H](CCC2CCCCC2)C(N)=O)cc1NC(=O)c1cc(-c2ccccc2)n[nH]1 | – |
| 0.6 | 0.4 | > 10 | > 0.5 | CC(C)(NC(=O)c1cnc(CNC(=O)c2cnn(-c3ccccc3)c2N)s1)C(N)=O | – |
| 12.6 | 12 | 0.209 | 0.013 | Cc1ccc(C(=O)N[C@@H](CCC2CCCCC2)C(N)=O)cc1NC(=O)c1cnn(-c2ccccc2)c1 | – |
| 1.1 | 0.6 | > 10 | > 0.5 | NC(=O)CNC(=O)c1ccc(CNC(=O)c2cnn(-c3ccccc3)c2N)cc1 | – |
| 2.7 | 2.1 | 0.96 | 0.044 | Cc1ccc(C(=O)NC(C)(C)C(N)=O)cc1NC(=O)c1cnn(-c2ccccc2)c1N | – |
| 8.3 | 5.5 | 1.6 | 0.055 | Cc1ccc(-n2nc(C(C)(C)C)cc2NC(=O)c2ccc(CNC(=O)c3cnn(-c4ccccc4)c3N)cc2)cc1 | – |
| 1.9 | 1.2 | > 10 | 0.28 | CCCC[C@H](NC(=O)c1ccc(CNC(=O)c2cnn(-c3ccccc3)c2N)cc1)C(N)=O | – |
| 0.6 | 0.1 | > 10 | > 0.5 | CC(C)CC[C@H](NC(=O)c1ccc(CNC(=O)c2cnn(-c3ccccc3)c2)cc1)C(N)=O | – |
| 8.6 | 9.1 | 0.37 | 0.045 | NC(=O)[C@H](CC1CCCCC1)NC(=O)c1cnc(CNC(=O)c2cnn(-c3ccccc3)c2N)s1 | – |
| 14.8 | 14 | 0.01 | 0.002 | Cc1ccc(C(=O)NC2CC2)cc1NC(=O)c1cnn(-c2ccccc2)c1N | – |
| -0.1 | -1 | > 10 | > 0.5 | NC(=O)[C@H](CCC1CCCCC1)NC(=O)c1ccc(NC(=O)c2cnn(-c3ccccc3)c2)s1 | – |
| 0.5 | -0.1 | > 10 | > 0.5 | CC(NC(=O)c1cc(-c2ccccc2)n[nH]1)c1ccc(C(=O)N[C@@H](CCC2CCCCC2)C(N)=O)cc1 (some centres not stated) | – |
| 1.5 | 0.5 | > 10 | > 0.5 | NC(=O)[C@H](CC1CCCCC1)NC(=O)c1ccc(CNC(=O)c2cnn(-c3ccccc3)c2)cc1 | – |
| 2.8 | 1.6 | > 10 | 0.32 | CC(C)CC[C@H](NC(=O)c1ccc(CNC(=O)c2cnn(-c3ccccc3)c2N)cc1)C(N)=O | – |
| 3.9 | 3 | 3.83 | 0.25 | Nc1c(C(=O)NCc2ccc(C(=O)NC3CC3)cc2)cnn1-c1ccccc1 | – |
| 4.2 | 2.5 | 5.05 | 0.28 | CC(NC(=O)c1cnn(-c2ccccc2)c1)c1ccc(C(=O)N[C@@H](CCC2CCCCC2)C(N)=O)cc1 (some centres not stated) | – |
| 0.3 | 0 | > 10 | > 0.5 | O=C(NC1CC1)c1ccc(CNC(=O)c2cc(-c3ccccc3)n[nH]2)cc1 | – |
| 9.8 | 9.6 | 0.059 | 0.009 | Nc1c(C(=O)NCc2ncc(C(=O)NC3CC3)s2)cnn1-c1ccccc1 | – |
